Values of other authors, collected in paper PMC10063609, “Discovery of novel cardiac troponin activators using fluorescence polarization-based high throughput screening assays” (Scientific Reports, 2023).

Key:
CcTnC = test system: CcTnC; set-up: method as in PMID 11320096, PMID 10913289; details: cited from earlier work
[1] = test system: CcTnC and cTnIAR interaction; set-up: method as in PMID 11320096, PMID 10913289; details: NMR spectroscopy; cited from earlier work
[2] = target: Ca2+-saturated N-lobe of cTnC; set-up: method as in PMID 35755445; details: isolated Ca2+-saturated N-lobe of cTnC; cited from earlier work
Ca2+-saturated cChimera = test system: Ca2+-saturated cChimera; set-up: method as in PMID 35755445; details: cited from earlier work
[3] = target: interaction between cTnC and switch peptide of cTnI (cTnISP) (Homo sapiens, UniProt P63316); set-up: method as in PMID 33315370; details: printed in Fig. 1c; assay previously published; cited from earlier work

Compound: COc1ccc(C(=O)N2CCCc3cc(C4=NNC(=O)SC4C)ccc32)cc1OC (centres unmarked) [EMD 57033]
- Affinity (CcTnC): micromolar affinity
- Effect on the CcTnC and cTnIAR interaction in vitro [1]: no significant effect

Compound: O=C(O)c1ccc(-c2ccccc2Nc2cccc(Cl)c2)cc1 [RPI-194]
- Kd [2]: > 300 µM
- Affinity (Ca2+-saturated cChimera): low micromolar affinity

Compound: FAM-A162H-cTnISP: N-terminally FAM labelled A162H-mutated switch region peptide of human cardiac troponin I, sequence TLRRVRISADAMMQALLGARHKESLDLR
- Kd [3]: ~10 µM
